Experimental data taken from US11414385B2, “Compounds and methods for treating, detecting, and identifying compounds to treat apicomplexan parasitic diseases” (The University of Chicago, priority 2015, dated 2022).
Like-named read-outs stand apart in the source and are kept apart here.

Assays:
[1] = test system: T. gondii tachyzoites (RH-YFP strain); assay: In vitro challenge assay for Toxoplasma tachyzoites (RH-YFP in HFF, fluorescence); assay type: cell-based, Toxoplasma gondii; settings: Toxoplasma gondii; RH-YFP; read-out: Tachy IC50
Protocol: Human foreskin fibroblasts (HFF) were cultured on a flat, clear-bottomed, black 96-well plate to 90% to 100% confluence. IMDM (1×, [+] glutamine, [+] 25 mM HEPES, [+] Phenol red, 10% FBS [gibco, Denmark]) was removed from each well and replaced with IMDM-C (1×, [+] glutamine, [+] 25 mM HEPES, [−] Phenol red, 10% FBS)[Gibco, Denmark]). Type I RH parasites expressing Yellow Fluorescent Protein (RH-YFP) were lysed from host cells by double passage through a 27-gauge needle. Parasites were counted and diluted to 32,000/mL in IMDM-C. Fibroblast cultures were infected with 3200 tachyzoites of the Type I RH-YFP strain and returned to incubator at 37° C. for 1-2 hours to allow for infection. Diluted solutions of the compounds were made using IMDM-C, and 20 μl were added to each designated well, with triplicates for each condition. Controls included pyrimethamine/sulfadiazine (current standard of treatment), DMSO only, fibroblast only, and an untreated YFP gradient with 2 fold dilutions of the parasite. Cells were incubated at 37° C. for 72 hours. The plates were read using a fluorimeter (Synergy H4 Hybrid Reader, BioTek) To ascertain the amount of yellow fluorescent protein, in relative fluorescence units (RFU), as a measure of parasite burden after treatment. Compounds were not considered effective or pursued for further analysis if there were no signs of inhibition at 1 μM. Data was collected using Gen5 software and analyzed with Excel.
Protocol adapted from Fomovska, et. al. (18,19). Human foreskin fibroblasts (HFF) were cultured on a flat, clear-bottomed, black 96-well plate to 90% to 100% confluence. IMDM (1×, [+] glutamine, [+] 25 mM HEPES, [+] Phenol red, 10% FBS [gibco, Denmark]) was removed from each well and replaced with IMDM-C (1×, [+] glutamine, [+] 25 mM HEPES, [−] Phenol red, 10% FBS)[gibco, Denmark]). Type I RH parasites expressing Yellow Fluorescent Protein (RH-YFP) were lysed from host cells by double passage through a 27-gauge needle. Parasites were counted and diluted to 32,000/mL in IMDM-C. Fibroblast cultures were infected with 3200 tachyzoites of the Type I RH strain expressing Yellow Fluorescent Protein (RH-YFP) and returned to incubator at 37° C. for 1-2 hours to allow for infection (15). Various concentrations of the compounds were made using IMDM-C, and 20 μl were added to each designated well, with triplicates for each condition. Controls included pyrimethamine/sulfadiazine (current standard of treatment), 0.1% DMSO only, fibroblast only, and an untreated YFP gradient with 2 fold dilutions of the parasite. Cells were incubated at 37° C. for 72 hours. Plates were read using a fluorimeter (Synergy H4 Hybrid Reader, BioTek) to ascertain the amount of yellow fluorescent protein, in relative fluorescence units (RFU), as a measure of parasite burden after treatment. Data was collected using Gen5 software. IC50 was calculated by graphical analysis in Excel.
An initial screening assay of 10 μM, 1 μM, 100 nM, and 10 nM was performed. Compounds were not considered effective or pursued for further analysis if there were no signs of inhibition of tachyzoites at 1 μM. If compounds did appear to be effective at 1 μM, another experiment was conducted to assess effect at 1 μM, 500 nM, 250 nM, 125 nM, 62.5 nM, and 31.25 nM.
Protocol adapted from Fomovska, et. al. (Fomovska A, Huang Q, El Bissati K, Mui E J, Witola W H, Cheng G, et al. Novel N-Benzoyl-2-Hydroxybenzamide Disrupts Unique Parasite Secretory Pathway. Antimicrob Agents Chemother [Internet]. 2012 May [cited 2015 Jul. 8]; 56(5):2666-82; Fomovska A, Wood R D, Mui E, Dubey J P, Ferreira L R, Hickman M R, et al. Salicylanilide inhibitors of Toxoplasma gondii. J Med Chem. 2012 Oct. 11; 55(19):8375-91.). Human foreskin fibroblasts (HFF) were cultured on a flat, clear-bottomed, black 96-well plate to 90% to 100% confluence. […]

[2] = test system: P. falciparum strains D6, TM91-C235, W2, C2B; assay: Malaria SYBR Green I-Based Fluorescence (MSF) Assay; assay type: cell-based, Plasmodium falciparum; settings: Plasmodium falciparum
Protocol: Testing of P. falciparum: D6 is a drug sensitive strain from Sierra Leone, C235 is a multi-drug resistant strain from Thailand, W2 is a chloroquine resistant strain from Thailand, and C2B has resistance to a variety of drugs including atovaquone.
D6 is a drug sensitive strain from Sierra Leone, C235 is a multi-drug resistant strain from Thailand, W2 is a chloroquine resistant strain from Thailand, and C2B has resistance to a variety of drugs including atovaquone. These assays were performed as described.
(§1) Compound activity against P. falciparum, a causative agent of malaria, was tested using the Malaria SYBR Green I—Based Fluorescence (MSF) Assay. This; microtiter plate drug sensitivity assay uses the presence of malarial DNA as a measure of parasitic proliferation in the presence of antimalarial drugs or experimental compounds based on modifications of previously described methods by Plouffe et al (20) and Johnson et al. As the intercalation of SYBR Green I dye and its resulting fluorescence is relative to parasite growth, a test compound that inhibits the growth of the parasite will result in a lower fluorescence.
Selected compounds were examined for activity against four strains of P. falciparum: D6 (CDC/Sierra Leone), a drug-sensitive strain readily killed by chloroquine, TM91-C235, a multi-drug resistant strain resistant to chloroquine, W2, a chloroquine resistant strain from Thailand, and C2B has resistance to a variety of drugs including atovaquone.
D6 is a drug sensitive strain from Sierra Leone, C235 is a multi-drug resistant strain from Thailand, W2 is a chloroquine resistant strain from Thailand, and C2B has resistance to a variety of drugs including atovaquone. These assays were performed using standard protocols.
as §1, with “known in the art.” for “by Plouffe et al (20) and Johnson et al.”, “fluorescence. Selected compounds were examined for activity against four strains of P. falciparum: D6 (CDC/Sierra Leone), a drugsensitive strain readily killed by chloroquine, TM91-C235, a multi-drug resistant strain resistant to chloroquine, W2, a chloroquine resistant strain from Thailand, and C2B has resistance to a variety of drugs including atovaquone.” for “fluorescence.”

[3] = D6 strain, read-out: Pf D6 IC50

Row | Compound | IC50 [1] | further results
1 | Cc1[nH]c2c(c(=O)c1-c1ccc(Oc3cccc(OC(F)(F)F)c3)cc1)CCCC2 [AS006/ JAG143, 2-methyl-3-(4 (3-(trifluoromethoxy)phenoxy)phenyl)-5,6,7,8-tetrahydroquinolin-4(1H)-one] | 60 to 80 nM | –
2 | Cc1[nH]c2c(c(=O)c1-c1ccc(Oc3cccc(C(F)(F)F)c3)cc1)CCCC2 [AS012/ JAG144, 2-methyl-3-(4-(3-(trifluoromethyl)phenoxy)phenyl)-5,6,7,8-tetrahydroquinolin-4(1H)-one] | 300 nM | –
3 | Cc1[nH]c2c(c(=O)c1-c1ccc(Oc3ccc(F)c(Cl)c3)cc1)CCCC2 [AS021/ JAG145, 3-[4-(3-chloro-4-fluorophenoxy)phenyl]-2-methyl-5,6,7,8-tetrahydro-1H-quinolin-4-one] | 80 nM | –
4 | Cc1[nH]c2c(c(=O)c1-c1ccc(Oc3cc(Cl)cc(Cl)c3)cc1)CCCC2 [AS022, 3-[4-(3,5-dichlorophenoxy)phenyl]-2-methyl-5,6,7,8-tetrahydro-1H-quinolin-4(1H)-one] | 20 to 40 nM | –
5 | Cc1[nH]c2c(c(=O)c1-c1ccc(Oc3ccc4c(c3)OCO4)cc1)CCCC2 [AS032, 3-[4-(2H-1,3-benzodioxo1-5-yloxy)phenyl]-2-methyl-5,6,7,8-tetrahydro-1H-quinolin-4-one] | 100 to 300 nM | –
6 | Cc1[nH]c2c(c(=O)c1-c1ccc(Oc3cc(Cl)nc(Cl)c3)cc1)CCCC2 [AS034/ JAG148, 3-{4-[(2,6-dichloropyridin-4-yl)oxy]phenyl}-2-methyl-5,6,7,8-tetrahydro-1H-quinolin-4-one] | 100 to 500 nM | –
7 | Cc1cc2[nH]c(C)c(-c3ccc(Oc4ccc(OC(F)(F)F)cc4)cc3)c(=O)n2n1 [JAG006, 2,5-dimethyl-6-(4 (4-(trifluoromethoxy)phenoxy)phenyl) pyrazolo[1,5-a]pyrimidin-7(4H)-one] | > 1000 nM | IC50 [2, 3]: 290 nM
8 | CSc1nc2[nH]c(C)c(-c3ccc(Oc4ccc(OC(F)(F)F)cc4)cc3)c(=O)n2n1 [JAG013, 5-methyl-2-(methylthio)-6-(4-(4-(trifluoromethoxy)phenoxy)phenyl)-[1,2,4]triazolo[1,5-a]pyrimidin-7(4H)-one] | > 1000 nM | IC50 ([2]; C2B strain, read-out: SYBR Green C2B IC50): 1390 nM; IC50 [2, 3]: 1310 nM; IC50 ([2]; D6 strain, read-out: SYBR Green D6 IC50): 1310 nM; IC50 ([2]; TM91C235 strain, read-out: SYBR Green C235 IC50): 2600 nM; IC50 ([2]; W2 strain, read-out: SYBR Green W2 IC50): 2350 nM
9 | Cc1c(-c2ccc(Oc3ccc(OC(F)(F)F)cc3)cc2)c(=O)c2c(n1C)CCCC2 [JAG023, 1,2-dimethyl-3-(4-(4-(trifluoromethoxy)phenoxy)phenyl)-5,6,7,8-tetrahydroquinolin-4(1H)-one] | 1000 nM | –
10 | Cc1[nH]c2c(c(=O)c1-c1ccc(Oc3ccc(F)cc3)cc1)CCCC2 [JAG58, 3-(4-(4-fluorophenoxy)phenyl)-2-methyl-5,6,7,8-tetrahydroquinolin-4(1H)-one] | 40 to 80 nM | –
11 | Cc1[nH]c2c(c(=O)c1-c1ccc(Oc3ccc(C(F)(F)F)cc3)cc1)CCCC2 [JAG63, 2-methyl-3-(4-(4-(trifluoromethyl)phenoxy)phenyl)-5,6,7,8-tetrahydroquinolin-4(1H)-one] | 100 to 300 nM | –
12 | Cc1[nH]c2c(c(=O)c1-c1ccc(Oc3cccc(F)c3)cc1)CCCC2 [JAG069, 3-(4-(3-Fluorophenoxy)phenyl)-2-methyl-5,6,7,8-tetrahydroquinolin-4(1H)-one] | 20 nM | –
13 | Cc1[nH]c2c(c(=O)c1-c1ccc(Oc3ccc(Cl)c(Cl)c3)cc1)CCCC2 [JAG084, 3-(4-(3,4-Dichlorophenoxy)phenyl)-2-methyl-5,6,7,8-tetrahydroquinolin-4(1H)-one] | 40 to 80 nM | –
14 | O=C(O)c1[nH]c2c(c(=O)c1-c1ccc(Oc3ccc(OC(F)(F)F)cc3)cc1)CCCC2 [JAG091, 3(4-(4-Trifluoromethoxyphenoxy)phenyl)-2-(carboxylate)-5,6,7,8-tetrahydroquinolin-4(1H)-one] | > 1000 nM | –
15 | O=c1[nH]c2c(c(=O)n1-c1ccc(Oc3ccccc3)cc1)CCCC2 [JAG095, 3-(4-Phenonxyphenyl)-1,2,3,4,5,6,7,8-octahydroquinazoline-2,4,dione] | > 10000 nM | –
16 | Cc1[nH]c2c(c(=O)c1-c1ccc(Oc3ccc(OC(F)(F)F)cc3)cc1)CC(C)CC2 (centres unmarked) [JAG106, 3(4-(4-Trifluoromethoxyphenoxy)phenyl)-2,6-dimethyl-5,6,7,8-tetrahydroquinolin-4(1H)-one] | ~1000 nM | –
17 | Cc1[nH]c2c(c(=O)c1-c1ccc(Oc3ccc(OC(F)(F)F)cc3)cc1)CCC(C)C2 (centres unmarked) [JAG107, 3(4-(4-Trifluoromethoxyphenoxy)phenyl)-2,7-dimethyl-5,6,7,8-tetrahydroquinolin-4(1H)-one] | 1000 nM | –
18 | CCC1CCc2c([nH]c(C)c(-c3ccc(Oc4ccc(OC(F)(F)F)cc4)cc3)c2=O)C1 (centres unmarked) [JAG121, 7-Ethyl-2-methyl-3(4-(4-trifluoromethoxyphenoxy)phenyl)-5,6,7,8-tetrahydroquinolin-4(1H)-one] | 100 nM | –
19 | Cc1[nH]c2cnccc2c(=O)c1-c1ccc(Oc2ccc(OC(F)(F)F)cc2)cc1 [JAG129, 3(4-(4-trifluoromethoxyphenoxy)phenyl)-2-methyl-1,7-napthyrid-4(1H)-one] | 100 nM | –
20 | Cc1[nH]c2c(c(=O)c1-c1ccc(Oc3ccc(OC(F)(F)F)cc3)cc1)CCC(C(F)(F)F)C2 (centres unmarked) [JAG162, 7-Trifluromethyl-2-methyl-3(4-(4-trifluoromethoxyphenoxy)phenyl)-5,6,7,8-tetrahydroquinolin-4(1H)-one] | 500 nM | –
